These results are taken from patent US10219516B2, “Molecules having pesticidal utility, and intermediates, compositions, and processes, related thereto” (priority 2015, dated 2019).

Holding throughout (format): in vivo
The subject of assay [1] is Beet Armyworm (Spodoptera exigua, LAPHEG). Briefly: Bioassay on Beet Armyworm (BAW), 128-well diet tray assay. The note with it: Species BAW (Beet Armyworm), read-out: BAW (Biological Results, rating). In outline: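 Artificial diet surface-treated with 50 μg/cm^2 test molecule in 90:10 acetone-water, dried, then infested with one to five second instar larvae per well. Held covered and vented at 25° C., 14:10 light-dark for five to seven days; percent mortality recorded per well and averaged over eight wells.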

Assay [2] deals with Cabbage Looper (Trichoplusia ni, TRIPNI). Put plainly: Bioassay on Cabbage Looper (CL), 128-well diet tray assay. The conditions noted are these: Trichoplusia ni; Species CL (Cabbage Looper); read-out: CL (Biological Results, rating). In a few lines: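 Percent mortality, averaged across eight replicate wells, was scored after five to seven days at 25° C. under a 14:10 light-dark cycle. Each well held one to five second instar larvae on artificial diet treated at 50 μg/cm^2 with compound from 90:10 acetone-water, allowed to dry before infestation.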

For assay [3], the system named is Yellow Fever Mosquito (Aedes aegypti, AEDSAE). Briefly: Bioassay on Yellow Fever Mosquito (YFM), 96-well plate larval assay. The conditions noted are these: Species YFM (Yellow Fever Mosquito). In a few lines: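 Compound stocks at 4000 ppm in DMSO were diluted with 90:10 water/acetone, and 15 μL aliquots were dispensed into six replicate plates. About 1-day-old larvae in liver-powder water were added per well. Plates were covered and held at room temperature for 3 days before each well was scored for mortality.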

SMILES strings stand for the structures.

In the case of `COc1cc(NC(=O)c2cc(NC(=O)[C@H]3[C@H](c4cc(Cl)cc(Cl)c4)C3(Cl)Cl)ccc2Cl)ccc1C#N` (relative stereo) [F234, 2-Chloro-N-(4-cyano-3-methoxyphenyl)-5-(trans-2,2-dichloro-3-(3,5-dichlorophenyl)cyclopropane-1-carboxamido)benzamide], the pest or weed control at 50 µg/cm2 in assay [1] and in assay [2] was 50 to 100% in each case. Moreover, the “YFM (Biological Results, rating)” value in assay [3] is given as “A (80-100)”.

For `N#Cc1ccc(NC(=O)c2cc(NC(=O)[C@H]3[C@H](c4cc(Cl)cc(Cl)c4)C3(Cl)Cl)ccc2Cl)cc1C(F)(F)F` (relative stereo) [F235, 2-Chloro-N-(4-cyano-3-(trifluoromethyl)phenyl)-5-(trans-2,2-dichloro-3-(3,5-dichlorophenyl)cyclopropane-1-carboxamido)benzamide], the pest or weed control at 50 µg/cm2 in assay [1] and in assay [2] was 50 to 100% in each case. In addition, the “YFM (Biological Results, rating)” value in assay [3] was “A (80-100)”.

Consider `N#Cc1cc(N)ccc1NC(=O)c1cc(NC(=O)[C@H]2[C@H](c3cc(Cl)cc(Cl)c3)C2(Cl)Cl)ccc1Cl` (relative stereo) [F236, trans-N-(4-amino-2-cyanophenyl)-2-chloro-5-(2,2-dichloro-3-(3,5-dichlorophenyl)cyclopropane-1-carboxamido)benzamide], for which the pest or weed control at 50 µg/cm2 in assay [1] and in assay [2] was 50 to 100% each time. In addition, the “YFM (Biological Results, rating)” value in assay [3] was “A (80-100)”.

Regarding `CNc1ccc(NC(=O)c2cc(NC(=O)[C@H]3[C@H](c4cc(Cl)cc(Cl)c4)C3(Cl)Cl)ccc2Cl)c(C#N)c1` (relative stereo) [F237, trans-2-chloro-N-(2-cyano-4-(methylamino)phenyl)-5-(2,2-dichloro-3-(3,5-dichlorophenyl)cyclopropane-1-carboxamido)benzamide], the pest or weed control at 50 µg/cm2 in assay [1] and in assay [2] was 50 to 100% each time. For the same molecule, the “YFM (Biological Results, rating)” value in assay [3] is “A (80-100)”.

Regarding `Nc1cc(NC(=O)c2cc(NC(=O)[C@H]3[C@H](c4cc(Cl)cc(Cl)c4)C3(Cl)Cl)ccc2Cl)ccc1F` (relative stereo) [F238, trans-N-(3-Amino-4-fluorophenyl)-2-chloro-5-(2,2-dichloro-3-(3,5-dichlorophenyl)cyclopropane-1-carboxamido)benzamide], the pest or weed control at 50 µg/cm2 in assay [1] and in assay [2] was 50 to 100% throughout. Moreover, in assay [3], the “YFM (Biological Results, rating)” value is “A (80-100)”.

On to `CNc1cc(NC(=O)c2cc(NC(=O)[C@H]3[C@H](c4cc(Cl)cc(Cl)c4)C3(Cl)Cl)ccc2Cl)ccc1F` (relative stereo) [F239, trans-2-Chloro-5-(2,2-dichloro-3-(3,5-dichlorophenyl)cyclopropane-1-carboxamido)-N-(4-fluoro-3-(methylamino)phenyl)benzamide], for which the pest or weed control at 50 µg/cm2 in assay [1] and in assay [2] was 50 to 100% each time. Moreover, the “YFM (Biological Results, rating)” value in assay [3] was “A (80-100)”.

For the molecule `O=C(Nc1cccc(F)n1)c1cc(NC(=O)[C@H]2[C@H](c3cc(Cl)cc(Cl)c3)C2(Cl)Cl)ccc1Cl` (relative stereo) [F240, trans-2-Chloro-5-(2,2-dichloro-3-(3,5-dichlorophenyl)cyclopropane-1-carboxamido)-N-(6-fluoropyridin-2-yl)benzamide], the pest or weed control at 50 µg/cm2 in assay [1] and in assay [2] was 50 to 100% each time. Further, the “YFM (Biological Results, rating)” value in assay [3] is on record as “A (80-100)”.

As for `O=C(Nc1ncc(F)cc1F)c1cc(NC(=O)[C@H]2[C@H](c3cc(Cl)cc(Cl)c3)C2(Cl)Cl)ccc1Cl` (relative stereo) [F241, trans-2-Chloro-5-(2,2-dichloro-3-(3,5-dichlorophenyl)cyclopropane-1-carboxamido)-N-(3,5-difluoropyridin-2-yl)benzamide], the pest or weed control at 50 µg/cm2 in assay [1] and in assay [2] was 50 to 100% throughout. Moreover, the “YFM (Biological Results, rating)” value in assay [3] is “A (80-100)”.

Take `Cc1cc(F)cnc1NC(=O)c1cc(NC(=O)[C@H]2[C@H](c3cc(Cl)cc(Cl)c3)C2(Cl)Cl)ccc1Cl` (relative stereo) [F242, trans-2-Chloro-5-(2,2-dichloro-3-(3,5-dichlorophenyl)cyclopropane-1-carboxamido)-N-(5-fluoro-3-methylpyridin-2-yl)benzamide]: the pest or weed control at 50 µg/cm2 in assay [1] and in assay [2] was 50 to 100% each time. Also, the “YFM (Biological Results, rating)” value in assay [3] is recorded as “A (80-100)”.

Turning to `CN(C(=O)c1cc(NC(=O)[C@H]2[C@H](c3cc(Cl)cc(Cl)c3)C2(Cl)Cl)ccc1Cl)c1ccc(F)cc1C#N` (relative stereo) [F243, trans-2-Chloro-N-(2-cyano-4-fluorophenyl)-5-(2,2-dichloro-3-(3,5-dichlorophenyl)cyclopropane-1-carboxamido)-N-methylbenzamide], the pest or weed control at 50 µg/cm2 in assay [1] and in assay [2] was 50 to 100% throughout. Moreover, in assay [3], the “YFM (Biological Results, rating)” value is “A (80-100)”.

Take `CN(C(=O)c1cc(NC(=O)[C@H]2[C@H](c3cc(Cl)c(Cl)c(Cl)c3)C2(Cl)Cl)ccc1Cl)c1ccc(F)cc1C#N` (relative stereo) [F244, trans-2-Chloro-N-(2-cyano-4-fluorophenyl)-5-(2,2-dichloro-3-(3,4,5-trichlorophenyl)cyclopropane-1-carboxamido)-N-methylbenzamide]: the pest or weed control at 50 µg/cm2 in assay [1] and in assay [2] was 50 to 100% in each case. In addition, in assay [3], the “YFM (Biological Results, rating)” value is recorded as “A (80-100)”.

Turning to `Nc1c(F)ccc(NC(=O)c2cc(NC(=O)[C@H]3[C@H](c4cc(Cl)cc(Cl)c4)C3(Cl)Cl)ccc2Cl)c1F` (relative stereo) [F245, trans-N-(3-Amino-2,4-difluorophenyl)-2-chloro-5-(2,2-dichloro-3-(3,5-dichlorophenyl)cyclopropane-1-carboxamido)benzamide], the pest or weed control at 50 µg/cm2 in assay [1] and in assay [2] was 50 to 100% in each case. The “YFM (Biological Results, rating)” value in assay [3] is on record as “A (80-100)”.

`O=C(Nc1ccccc1)c1cc(NC(=O)[C@H]2[C@H](c3cc(Cl)cc(Cl)c3)C2(Cl)Cl)cc(Cl)c1Cl` (relative stereo) [F246, trans-2,3-Dichloro-5-(2,2-dichloro-3-(3,5-dichlorophenyl)cyclopropane-1-carboxamido)-N-phenylbenzamide]: the pest or weed control at 50 µg/cm2 in assay [1] and in assay [2] was 50 to 100% throughout. For the same molecule, the “YFM (Biological Results, rating)” value in assay [3] is given as “A (80-100)”.

On to `O=C(Nc1ccc(F)cc1F)c1cc(NC(=O)[C@H]2[C@H](c3cc(Cl)cc(Cl)c3)C2(Cl)Cl)cc(Cl)c1Cl` (relative stereo) [F247, trans-2,3-Dichloro-5-(2,2-dichloro-3-(3,5-dichlorophenyl)cyclopropane-1-carboxamido)-N-(2,4-difluorophenyl)benzamide], for which the pest or weed control at 50 µg/cm2 in assay [1] and in assay [2] was 50 to 100% throughout. In addition, in assay [3], the “YFM (Biological Results, rating)” value is on record as “A (80-100)”.

Regarding `CC(=O)Nc1ccc(NC(=O)c2cc(NC(=O)[C@H]3[C@H](c4cc(Cl)cc(Cl)c4)C3(Cl)Cl)cc(Cl)c2Cl)cc1` (relative stereo) [F248, trans-N-(4-Acetamidophenyl)-2,3-dichloro-5-(2,2-dichloro-3-(3,5-dichlorophenyl)cyclopropane-1-carboxamido)benzamide], the pest or weed control at 50 µg/cm2 in assay [1] and in assay [2] was 50 to 100% in each case. The “YFM (Biological Results, rating)” value in assay [3] is “A (80-100)”.

On to `CNc1ccc(NC(=O)c2cc(NC(=O)[C@H]3[C@H](c4cc(Cl)cc(Cl)c4)C3(Cl)Cl)cc(Cl)c2Cl)cc1` (relative stereo) [F249, trans-2,3-Dichloro-5-(2,2-dichloro-3-(3,5-dichlorophenyl)cyclopropane-1-carboxamido)-N-(4-(methylamino)phenyl)benzamide], for which the pest or weed control at 50 µg/cm2 in assay [1] and in assay [2] was 50 to 100% in each case. The “YFM (Biological Results, rating)” value in assay [3] is “A (80-100)”.

For the molecule `COC(=O)C(O)(c1ccc(NC(=O)c2cc(NC(=O)[C@H]3[C@H](c4cc(Cl)cc(Cl)c4)C3(Cl)Cl)ccc2Cl)c(C)c1)C(F)(F)F` (relative stereo) [F257, Methyl 2-(4-(2-chloro-5-(trans)-(2,2-dichloro-3-(3,5-dichlorophenyl)cyclopropane-1-carboxamido)benzamido)-3-methylphenyl)-3,3,3-trifluoro-2-hydroxypropanoate], the pest or weed control at 50 µg/cm2 in assay [1] and in assay [2] was 50 to 100% each time. Besides, the “YFM (Biological Results, rating)” value in assay [3] was “A (80-100)”.

`C=C(c1ccc(NC(=O)c2cc(NC(=O)[C@H]3[C@H](c4cc(Cl)cc(Cl)c4)C3(Cl)Cl)ccc2Cl)c(C)c1)C(F)(F)F` (relative stereo) [F258, 2-Chloro-5-(trans)-(2,2-dichloro-3-(3,5-dichlorophenyl)cyclopropane-1-carboxamido)-N-(2-methyl-4-(3,3,3-trifluoroprop-1-en-2-yl)phenyl)benzamide]: the pest or weed control at 50 µg/cm2 in assay [1] and in assay [2] was 50 to 100% each time. In addition, in assay [3], the “YFM (Biological Results, rating)” value was “B (More than 0-Less than 80)”.

With `O=C(Nc1ccccc1)c1cc(NC(=O)[C@H]2[C@H](c3ccc(F)c(Cl)c3)C2(Cl)Cl)ccc1Cl` (relative stereo) [F259, trans-2-Chloro-5-(2,2-dichloro-3-(3-chloro-4-fluorophenyl)cyclopropane-1-carboxamido)-N-phenylbenzamide], the pest or weed control at 50 µg/cm2 in assay [1] and in assay [2] was 50 to 100% each time. The “YFM (Biological Results, rating)” value in assay [3] was “A (80-100)”.
